Measurements from patent US10071133B2, “Method for destroying exosomes, kit for destroying exosomes, and method for isolating exosomes derived from normal cells” (priority 2015, dated 2018).

Key:
[1] = system: exosomes derived from human breast cancer cells (MM231-luc-D3H2LN) in human peripheral blood sample; conditions: […]10^10 particles/mL exosomes, 100 μM magainin 2 or 8% phenol, 25° C., 24 hours
Procedure: The exosome fraction A prepared from the cell line MM231-luc-D3H2LN derived from human breast cancer cells was added to a peripheral blood sample collected from a healthy person with no cancer (hereinafter will be also referred to as human peripheral blood sample) so as to become an exosome concentration of an actual cancer patient, and thereby an artificial sample of a human peripheral blood of the cancer patient was produced. The human peripheral blood sample was obtained after procurement of the patient informed consent according to the Declaration of Helsinki, similarly to the method described in Japanese Unexamined patent publication No. 2013-198483, for example. Blood was drawn using a blood collection tube containing an anticoagulant.
Using a part of the incubated solution, the exosomes were purified with Exo-Flow32 CD9 IP Kit (manufactured by SBI), and then the number of exosomes in the solution was measured using the nanoparticle analyzer (NanoSight LM10; manufactured by NanoSight, Ltd.). […] In addition, a part of the incubated solution was subjected to the serum component protein electrophoresis.

[2] = system: exosome fraction B derived from human breast cancer cells versus exosome fraction derived from human mammary gland cells (MCF-10A, normal cells); assay: Selectivity: miR-16 ratio, breast cancer exosomes versus mammary gland normal cell exosomes (Formula 1); type: biochemical
Procedure: (§1) A cell suspension of cell line MDA-MB-231-luc-D3H2LN derived from human breast cancer (=MM231-luc-D3H2LN, provided by the National Cancer Center Research Institute) was seeded in a dish containing RPMI 1640 medium (manufactured by Thermo Fisher Scientific Inc.) containing 10% fetal bovine serum. Subsequently, the cell line was grown at 37° C. under the condition that CO2 concentration was set to 5 volume % using a CO2 incubator, and then the medium was replaced with Advanced RPMI 1640 medium (manufactured by Thermo Fisher Scientific Inc.), followed by culturing for 48 hours, and therefore the culture solution containing exosomes was obtained. This culture solution was centrifuged at 2,000 G for 10 minutes to remove the precipitate, followed by centrifugation at 110,000 G for 70 minutes to precipitate the exosomes, and therefore an exosome fraction B was recovered. The recovered exosome fraction B was suspended in a phosphate buffered saline (PBS) and then stored at 4° C. Storage samples were lightly suspended with a vortex mixer (vibration mixer) before use.
A cell suspension of cell line MCF 10A derived from human mammary epithelial cells (provided by the National Cancer Center Research Institute) was seeded in a dish containing Mammary Epithelium Cell Basal Medium (manufactured by Lonza). Subsequently, the cell line was grown at 37° C. under the condition that CO2 concentration was set to 5 volume % using a CO2 incubator, and then the medium was replaced with a fresh medium, followed by culturing for 48 hours, and the culture solution containing exosomes was obtained. This culture solution was centrifuged at 2,000 G for 10 minutes to remove the precipitate, followed by centrifugation at 110,000 G for 70 minutes to precipitate the exosomes, and an exosome fraction was recovered. The recovered exosome fraction was suspended in a phosphate buffered saline (PBS) and then stored at 4° C. Storage samples were lightly suspended with a vortex mixer (vibration mixer) before use.
(§2) MicroRNA (miR-21 or miR-16) in the reaction solution was subjected to reverse transcription PCR using reverse transcription primers (manufactured by Thermo Fisher Scientific Inc., Taqman microRNA Assays, RT primers, and hsa-mir-21 or hsa-mir-16) and a reverse transcriptase (manufactured by Thermo Fisher Scientific Inc., Taqman microRNA RT kit).
(§3) The reverse transcription PCR solution obtained by the above described method was processed and by comparing the number of cycles on a calibration curve of microRNA using Taqman Assay primer (manufactured by Thermo Fisher Scientific Inc., Taqman microRNA Assays, Taqman Assay primer, and hsa-mir-21 or hsa-mir-16) and Real-Time PCR Master Mixes (manufactured by Thermo Fisher Scientific Inc., TaqMan Universal PCR Master Mix II, w/UNG) with StepOnePlus Real-Time PCR System, MiR-21 or miR-16 was quantified. The calibration curve of microRNA was created using synthetic miR-21 (manufactured by Sigma-Aldrich Co. LLC.) or synthetic miR-16 (manufactured by Sigma-Aldrich Co. LLC.).
(§4) 10 μL of the exosome fraction was prepared such that PBS contains 1×10^11 particles/mL of the exosome fraction B derived from human breast cancer cells, various antimicrobial peptides shown in the following Table 4 adjusted to 100 μM, and 0.4 U/μL of RNase inhibitor (manufactured by Toyobo Co., Ltd.), followed by incubation by being left to stand at 37° C. for 24 hours.
Thereafter, the eluted MicroRNA (miR-16) was purified and recovered from the incubated solution by the same method as the above described method for extraction from the incubated solution of Examples 10 and 11 above and Comparative Examples 6 and 7 above. […]

[3] = system: exosome fraction B derived from human breast cancer cells (MDA-MB-231-luc-D3H2LN); assay: Extraction of microRNA (miR-21) from exosomes derived from human breast cancer cells, real-time PCR; type: biochemical; conditions: 100 μM peptide, 1×10^11 particles/mL exosomes, 0.4 U/μL RNase inhibitor, 37° C., 24 hours; without peptide 8×10^−14M
Procedure: as §1, §2, §3
as §4, with “Table 2” for “Table 4”
MicroRNA eluted into the solution was purified and recovered from the incubated solution of Example 10 above and Comparative Example 6 above by the following method.
First, 160 μL of PBS was added to the reaction solution, and then the solution was added to a centrifugal filter (manufactured by Millipore Corporation, Amicon Ultra 0.5 mL, 100K filter) and centrifuged at 14,000 G for 2 minutes. Subsequently, 100 μL of the centrifuged filtrate was recovered and introduced into a 1.5 mL tube. Next, 350 μL of RLT buffer (manufactured by QIAGEN, attached with RNeasy mini kit) and 675 μL of ethanol were added and mixed in the 1.5 mL tube. The obtained mixture was separated into two parts, and each of the separates was added onto a spin column (manufactured by QIAGEN, attached with RNeasy mini kit) followed by centrifugation at 8,000 G for 15 seconds, and the entire amount of the mixture was passed through the spin column. Thereafter, 500 μL of RPE buffer (manufactured by QIAGEN, attached with RNeasy mini kit) was added thereto and centrifuged at 8,000 G for 15 seconds. Furthermore, 500 μL of the RPE buffer was added to the spin column once more and centrifuged at 8,000 G for 15 seconds. Thereafter, the spin column was centrifuged at 14,000 G for 1 minute to remove the residual RPE buffer. Next, 30 μL of RNase free water (manufactured by QIAGEN, attached with RNeasy mini kit) was added to the spin column, left for 1 minute, and then centrifuged at 14,000 G for 1 minute, and the eluate obtained thereby was recovered. […]

Magainin 2
exosome amount compared to Comparative Example 3 (no additive) [1]: decreased | mir-16 ratio ([2]; Formula 1, cancer/normal (MCF-10A), 100 μM peptide, 37° C., 24 hours): 26 | Selectivity ([2]; from miR-16 ratio versus Comparative Example 8, breast cancer vs MCF-10A exosomes): B (evaluated as “B” in a case where the calculated miR-16 value was higher than the miR-16 ratio of Comparative Example 8) | Destructive activity (concentration of microRNA miR-21 in eluate) [3]: A (the concentration of microRNA is 50×10^−14M or more)
